Assay results: ChEMBL document CHEMBL6109084 (Eur J Med Chem, 2025)
pIC50: −log10 of the molar value. In brackets after ≈: the same amount, converted by molar mass. Several values for one entry are separate records, joined by “and”; a condition that tells them apart may be missing. Equal values may be shown once. Activity calls are given as the source filed them. No cut-off for these calls is given here.

How the values were obtained:
[1] = Toxicity in C57BL/6J mouse assessed as prolongation of bleeding time at 30 mg/kg, IG measured after 30 mins by tail bleeding assay; format: organism-based; conditions: in vivo, po, 0.5 h
[2] = system: Plasma; test: Anticoagulant activity in citrated human plasma assessed as prolongation of activated partial thromboplastin time incubated for 3 mins by aPTT reagent based automated coagulometric analysis; format: functional; conditions: for EC1.5: 0.05 h
[3] = system: Plasma; test: Anticoagulant activity in mouse plasma assessed as prolongation of activated partial thromboplastin time incubated for 3 mins by aPTT reagent based automated coagulometric analysis; format: functional; conditions: 0.05 h
[4] = molecular target: Chymotrypsin (Homo sapiens, UniProt Q99895+P17538+P40313+Q6GPI1); test: Inhibition of chymotrypsin (unknown origin) using N-Suc-Ala-Ala-Pro-Phe-pNA as substrate incubated for 30 mins followed by substrate addition and measured after 60 mins by microplate reader analysis; format: protein assay
[5] = molecular target: Coagulation factor X (Homo sapiens, UniProt P00742); test: Inhibition of FXa (unknown origin) using Z-D-Arg-Gly-Arg-pNA.2HCl as substrate incubated for 30 mins followed by substrate addition and measured after 60 mins by microplate reader analysis
[6] = Cytotoxicity against human AC16 [Human hybrid] cells assessed as reduction in cell viability at 1 to 50 uM incubated for 24 hrs by MTT assay; format: toxicity, cell-based; conditions: dose 1-50 µM
[7] = system: Plasma; test: Anticoagulant activity in citrated human plasma assessed as prolongation of activated partial thromboplastin time at 1 uM incubated for 3 mins by aPTT reagent based automated coagulometric analysis relative to control; format: functional; conditions: 0.05 h
[8] = system: HK-2; test: Cytotoxicity against human HK-2 cells assessed as reduction in cell viability at 1 to 50 uM incubated for 24 hrs by MTT assay; format: toxicity, cell-based; conditions: hk-2, 24 h, dose 1-50 µM
[9] = system: HepG2; test: Cytotoxicity against human HepG2 cells assessed as reduction in cell viability at 1 to 50 uM incubated for 24 hrs by MTT assay; format: toxicity, cell-based; conditions: hepg2, 24 h, dose 1-50 µM
[10] = molecular target: Trypsin (Homo sapiens, UniProt P07477+P07478+P35030); test: Inhibition of trypsin (unknown origin) using Bz-Ile-Glu(gamma-OR)-Gly-Arg-pNA.HCl as substrate incubated for 30 mins followed by substrate addition and measured after 60 mins by microplate reader analysis; format: protein assay
[11] = molecular target: Prothrombin (Homo sapiens, UniProt P00734); test: Inhibition of thrombin (unknown origin) using H-D-Phe-Pip-Arg-pNA.2HCl as substrate incubated for 30 mins followed by substrate addition and measured after 60 mins by microplate reader analysis
[12] = molecular target: Tissue-type plasminogen activator (Homo sapiens, UniProt P00750); test: Inhibition of tPA (unknown origin) using H-D-Ile-Pro-Arg-pNA-2HCl as substrate incubated for 30 mins followed by substrate addition and measured after 60 mins by microplate reader analysis
[13] = molecular target: Plasminogen (Homo sapiens, UniProt P00747); test: Inhibition of plasmin (unknown origin) using PyroGlu-Phe-Lys-pNA.HCl as substrate incubated for 30 mins followed by substrate addition and measured after 60 mins by microplate reader analysis
[14] = molecular target: T1, Coagulation factor XII (Homo sapiens, UniProt P00748); test: Inhibition of FXIIa (unknown origin) using H-D-ProPhe-Arg-pNA.2HCl as substrate incubated for 30 mins followed by substrate addition and measured after 60 mins by microplate reader analysis
T1 sequence (P00748 whole entry): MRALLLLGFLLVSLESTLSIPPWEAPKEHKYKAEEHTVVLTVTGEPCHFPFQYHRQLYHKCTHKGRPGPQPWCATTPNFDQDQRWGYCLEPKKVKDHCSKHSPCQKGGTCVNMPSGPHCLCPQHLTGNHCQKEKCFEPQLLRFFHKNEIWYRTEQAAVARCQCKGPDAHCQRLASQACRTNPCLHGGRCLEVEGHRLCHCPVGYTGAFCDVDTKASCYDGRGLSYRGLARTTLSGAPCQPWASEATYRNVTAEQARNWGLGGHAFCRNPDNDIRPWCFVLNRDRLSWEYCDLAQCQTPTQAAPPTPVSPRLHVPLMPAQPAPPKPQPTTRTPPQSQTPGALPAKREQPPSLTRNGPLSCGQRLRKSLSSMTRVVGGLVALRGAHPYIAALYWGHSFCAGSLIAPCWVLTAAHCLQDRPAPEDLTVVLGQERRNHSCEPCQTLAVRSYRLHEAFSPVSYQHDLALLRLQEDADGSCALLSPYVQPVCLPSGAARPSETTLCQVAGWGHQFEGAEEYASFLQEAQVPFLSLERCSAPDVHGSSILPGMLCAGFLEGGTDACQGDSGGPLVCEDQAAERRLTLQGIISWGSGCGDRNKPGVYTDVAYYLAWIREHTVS

[15] = Selectivity index, ratio of IC50 for inhibition of trypsin (unknown origin) using Bz-Ile-Glu(gamma-OR)-Gly-Arg-pNA.HCl as substrate to IC50 for inhibition of human FXIa using p-Glu-Pro-Arg-pNA.HCl as substrate
[16] = molecular target: Coagulation factor XI (Homo sapiens, UniProt P03951); test: Inhibition of human FXIa using p-Glu-Pro-Arg-pNA.HCl as substrate incubated for 30 mins followed by substrate addition and measured after 60 mins by microplate reader analysis
[17] = Selectivity index, ratio of IC50 for inhibition of tPA (unknown origin) using H-D-Ile-Pro-Arg-pNA-2HCl as substrate to IC50 for inhibition of human FXIa using p-Glu-Pro-Arg-pNA.HCl as substrate
[18] = physchem; conditions: aqueous medium, pH 7.4
Description: Aqueous solubility of the compound in DMSO at pH 7.4 incubated for 12 hrs by turbidimetric based UV spectrophotometric analysis

[19] = Selectivity index, ratio of IC50 for inhibition of plasmin (unknown origin) using PyroGlu-Phe-Lys-pNA.HCl as substrate to IC50 for inhibition of human FXIa using p-Glu-Pro-Arg-pNA.HCl as substrate
[20] = system: Plasma; test: Anticoagulant activity in citrated human plasma assessed as prolongation of prothrombin time incubated for 3 mins by PT reagent based automated coagulometric analysis; format: functional, cell-free
[21] = system: HK-2; test: Cytotoxicity against human HK-2 cells assessed as reduction in cell viability at 10 to 50 uM incubated for 24 hrs by MTT assay; format: toxicity, cell-based; conditions: hk-2, 24 h, dose 10-50 µM
[22] = Selectivity index, ratio of IC50 for inhibition of FXIIa (unknown origin) using H-D-ProPhe-Arg-pNA.2HCl as substrate to IC50 for inhibition of human FXIa using p-Glu-Pro-Arg-pNA.HCl as substrate
[23] = Selectivity index, ratio of IC50 for inhibition of FXa (unknown origin) using Z-D-Arg-Gly-Arg-pNA.2HCl as substrate to IC50 for inhibition of human FXIa using p-Glu-Pro-Arg-pNA.HCl as substrate
[24] = Selectivity index, ratio of IC50 for inhibition of thrombin (unknown origin) using H-D-Phe-Pip-Arg-pNA.2HCl as substrate to IC50 for inhibition of human FXIa using p-Glu-Pro-Arg-pNA.HCl as substrate
[25] = Selectivity index, ratio of IC50 for inhibition of chymotrypsin (unknown origin) using N-Suc-Ala-Ala-Pro-Phe-pNA as substrate to IC50 for inhibition of human FXIa using p-Glu-Pro-Arg-pNA.HCl as substrate
[26] = molecular target: Plasma kallikrein (Homo sapiens, UniProt P03952); test: Inhibition of PKal (unknown origin) using H-D-Pro-Phe-Arg-pNA.2HCl as substrate incubated for 30 mins followed by substrate addition and measured after 60 mins by microplate reader analysis
[27] = Metabolic stability in human liver microsome assessed as half life; format: ADME; conditions: liver microsomes
[28] = Apparent permeability in MDCK-MDR1 cells; format: ADME, cell-based, Canis lupus familiaris; conditions: dog
[29] = Plasma protein binding in human; format: ADME, cell-free; conditions: read-out: PPB (converted)
[30] = system: HK-2; test: Cytotoxicity against human HK-2 cells assessed as reduction in cell viability at 50 uM incubated for 24 hrs by MTT assay; format: toxicity, cell-based; conditions: hk-2, 24 h

Sequence of Tissue-type plasminogen activator (P00750 whole entry): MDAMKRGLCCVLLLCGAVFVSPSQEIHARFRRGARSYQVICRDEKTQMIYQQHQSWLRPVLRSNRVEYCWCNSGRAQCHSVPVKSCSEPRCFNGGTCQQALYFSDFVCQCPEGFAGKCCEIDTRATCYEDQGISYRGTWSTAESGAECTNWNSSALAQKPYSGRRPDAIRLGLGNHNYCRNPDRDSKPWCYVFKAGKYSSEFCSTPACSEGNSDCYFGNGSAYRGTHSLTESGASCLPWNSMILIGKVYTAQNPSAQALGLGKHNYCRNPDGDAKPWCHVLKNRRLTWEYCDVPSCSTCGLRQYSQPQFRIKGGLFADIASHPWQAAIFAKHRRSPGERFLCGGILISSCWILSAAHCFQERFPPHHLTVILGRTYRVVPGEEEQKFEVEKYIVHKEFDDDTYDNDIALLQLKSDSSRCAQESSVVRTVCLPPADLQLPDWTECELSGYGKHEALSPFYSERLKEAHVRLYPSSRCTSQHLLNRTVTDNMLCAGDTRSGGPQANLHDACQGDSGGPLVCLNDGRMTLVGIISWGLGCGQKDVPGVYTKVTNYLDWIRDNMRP
Sequence of Plasma kallikrein (P03952 20-390 limits assumed): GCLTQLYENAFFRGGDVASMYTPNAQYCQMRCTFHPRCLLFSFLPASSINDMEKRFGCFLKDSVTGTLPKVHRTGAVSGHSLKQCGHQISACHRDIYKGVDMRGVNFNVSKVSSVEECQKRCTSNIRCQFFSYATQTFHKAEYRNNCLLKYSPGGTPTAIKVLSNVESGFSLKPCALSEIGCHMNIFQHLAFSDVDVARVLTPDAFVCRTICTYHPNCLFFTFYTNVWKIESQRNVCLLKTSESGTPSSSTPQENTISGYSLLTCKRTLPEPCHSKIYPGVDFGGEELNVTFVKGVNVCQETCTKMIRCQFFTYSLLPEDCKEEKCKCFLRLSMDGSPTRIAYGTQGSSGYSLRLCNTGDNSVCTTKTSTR
Sequence of Plasma kallikrein (P03952 391-638 limits assumed): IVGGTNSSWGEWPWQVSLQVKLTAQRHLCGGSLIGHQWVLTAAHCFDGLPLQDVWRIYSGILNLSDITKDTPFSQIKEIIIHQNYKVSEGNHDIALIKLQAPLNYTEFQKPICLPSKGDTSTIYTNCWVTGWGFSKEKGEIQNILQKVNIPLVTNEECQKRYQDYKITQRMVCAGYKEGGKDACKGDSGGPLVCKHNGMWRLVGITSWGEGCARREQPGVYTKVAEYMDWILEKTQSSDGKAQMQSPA
Sequence of Plasminogen (P00747 97-580 limits assumed): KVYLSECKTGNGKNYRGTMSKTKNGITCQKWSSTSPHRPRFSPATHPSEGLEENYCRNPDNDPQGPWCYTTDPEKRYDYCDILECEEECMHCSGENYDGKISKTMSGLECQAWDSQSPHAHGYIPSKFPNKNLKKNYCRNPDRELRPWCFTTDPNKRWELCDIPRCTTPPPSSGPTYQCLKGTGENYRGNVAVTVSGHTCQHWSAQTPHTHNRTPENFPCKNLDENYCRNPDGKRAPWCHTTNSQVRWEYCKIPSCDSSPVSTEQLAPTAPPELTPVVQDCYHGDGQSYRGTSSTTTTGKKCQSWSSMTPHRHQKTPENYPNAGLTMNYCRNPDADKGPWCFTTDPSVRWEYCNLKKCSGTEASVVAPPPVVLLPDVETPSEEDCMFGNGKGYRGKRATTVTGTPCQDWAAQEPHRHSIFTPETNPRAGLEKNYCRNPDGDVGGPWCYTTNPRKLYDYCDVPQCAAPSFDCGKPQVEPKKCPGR
Sequence of Plasminogen (P00747 581-810 limits assumed): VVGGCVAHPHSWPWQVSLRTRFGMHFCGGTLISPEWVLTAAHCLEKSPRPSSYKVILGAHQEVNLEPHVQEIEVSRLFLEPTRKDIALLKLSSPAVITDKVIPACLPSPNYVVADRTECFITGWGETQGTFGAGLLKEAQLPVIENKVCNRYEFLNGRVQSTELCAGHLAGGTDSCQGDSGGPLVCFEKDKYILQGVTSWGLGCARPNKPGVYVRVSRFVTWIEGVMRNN
Sequence of Coagulation factor XI (P03951 19-387 limits assumed): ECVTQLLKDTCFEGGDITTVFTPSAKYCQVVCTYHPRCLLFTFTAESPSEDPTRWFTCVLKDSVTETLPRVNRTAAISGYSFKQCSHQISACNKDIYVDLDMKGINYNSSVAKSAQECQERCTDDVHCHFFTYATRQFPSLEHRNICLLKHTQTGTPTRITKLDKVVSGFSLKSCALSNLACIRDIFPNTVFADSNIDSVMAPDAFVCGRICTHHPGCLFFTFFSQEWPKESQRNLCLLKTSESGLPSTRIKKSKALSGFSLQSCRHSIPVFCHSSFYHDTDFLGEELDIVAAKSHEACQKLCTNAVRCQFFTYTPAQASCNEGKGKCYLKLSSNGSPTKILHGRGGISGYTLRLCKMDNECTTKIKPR
Sequence of Coagulation factor XI (P03951 388-625 limits assumed): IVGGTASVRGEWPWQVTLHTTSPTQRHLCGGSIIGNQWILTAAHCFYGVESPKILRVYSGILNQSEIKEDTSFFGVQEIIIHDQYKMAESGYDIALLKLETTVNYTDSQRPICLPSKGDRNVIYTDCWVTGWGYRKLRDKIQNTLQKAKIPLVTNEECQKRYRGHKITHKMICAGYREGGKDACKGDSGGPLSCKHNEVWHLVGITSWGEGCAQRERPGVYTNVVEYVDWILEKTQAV
Sequence of Coagulation factor X (P00742 41-179 limits assumed): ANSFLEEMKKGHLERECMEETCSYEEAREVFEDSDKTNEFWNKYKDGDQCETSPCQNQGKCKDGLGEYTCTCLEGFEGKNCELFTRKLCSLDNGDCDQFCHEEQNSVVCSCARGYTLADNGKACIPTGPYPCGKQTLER
Sequence of Coagulation factor X (P00742 235-488 limits assumed): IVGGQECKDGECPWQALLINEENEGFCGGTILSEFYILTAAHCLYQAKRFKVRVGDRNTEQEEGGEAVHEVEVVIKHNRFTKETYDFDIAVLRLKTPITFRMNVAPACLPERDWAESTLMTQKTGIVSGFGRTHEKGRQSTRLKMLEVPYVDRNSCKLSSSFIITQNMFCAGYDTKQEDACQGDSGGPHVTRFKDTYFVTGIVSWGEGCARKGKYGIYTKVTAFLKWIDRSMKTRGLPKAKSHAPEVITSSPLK

SMILES | Activity [2] | EC1.5 [2] [µM] | IC50 [4] [nM] | pIC50 [5] | Activity [7] [%] | IC50 [10] [nM] | pIC50 [11] | pIC50 [12] | pIC50 [13] | pIC50 [14] | Ratio IC50 [15] | pIC50 [16] | Ratio IC50 [17] | Ratio IC50 [19] | Activity [20] | Ratio IC50 [22] | Ratio IC50 [23] | Ratio IC50 [24] | Ratio IC50 [25] | pIC50 [26] | other results
CC[C@@H](C(=O)Nc1ccc(C(N)=O)c(F)c1)n1cc(OC)c(-c2cc(Cl)ccc2-n2cc(C(F)(F)F)nn2)cc1=O | Dose-dependent-effect | 0.42 | > 1000 | < 6.00 | 250.8 | > 1000 | < 6.00 | < 6.00 | < 6.00 | < 6.00 |  |  |  |  |  |  |  |  |  |  | Activity [1]: Non-toxic; EC1.5 [3]: >=9.3 uM and >12.5 uM; Activity [6]: Non-toxic; Activity [8]: Non-toxic; Activity [9]: Non-toxic
CCC(c1cc(-c2ccc(N)nc2)ccn1)n1cc(OC)c(-c2cc(Cl)ccc2-n2cnnn2)cc1=O (racemic) | Dose-dependent-effect | 0.58 | > 1000 | < 6.00 | 210.1 | > 1000 | < 6.00 | < 6.00 | < 6.00 | < 6.00 | > 1000 | 9.43 | > 1000 | > 1000 | inactive | > 1000 | > 1000 | > 1000 | > 1000 | 7.09 | solubility kinetic at 12 h [18]: 108 µg/mL (≈ 210 µM); Activity [21]: Toxic
COc1cn(Cc2cc(-c3ccc(N)nc3)ccn2)c(=O)cc1-c1cc(Cl)ccc1-n1cnnn1 | Dose-dependent-effect | 0.57 | > 1000 | < 6.00 | 193.8 | > 1000 | < 6.00 | < 6.00 | < 6.00 | < 6.00 | > 1000 | 9.72 | > 1000 | > 1000 | inactive | > 1000 | > 1000 | > 1000 | > 1000 | 7.01 | half-life [27]: > 3 h; Papp [28]: 0.13 ×10⁻⁶ cm/s; solubility kinetic at 12 h [18]: 193 µg/mL (≈ 396 µM); Activity [6]: Non-toxic; Activity [8]: Non-toxic; Activity [9]: Non-toxic
CCC(c1cccc(-c2ccc(N)nc2)c1)n1cc(OC)c(-c2cc(Cl)ccc2-n2cnnn2)cc1=O (stereo unspecified) |  |  |  |  | 45.7 |  |  |  |  |  |  | 9.62 |  |  |  |  |  |  |  |  | fraction unbound [29]: 0.004
CC[C@@H](c1cc(-c2ccc(N)nc2)ccn1)n1cc(OC)c(-c2cc(Cl)ccc2-n2cnnn2)cc1=O | Dose-dependent-effect | 0.29 | > 1000 | < 6.00 | 368.3 | > 1000 | < 6.00 | < 6.00 | < 6.00 | < 6.00 | > 1000 | 9.89 | > 1000 | > 1000 | inactive | > 1000 | > 1000 | > 1000 | > 1000 | 7.43 | EC1.5 [3]: 1.8 µM; Activity [30]: Toxic
CC[C@H](c1cc(-c2ccc(N)nc2)ccn1)n1cc(OC)c(-c2cc(Cl)ccc2-n2cnnn2)cc1=O |  |  |  |  | 59.6 |  |  |  |  |  |  | 7.97 |  |  |  |  |  |  |  |  | Activity [30]: Toxic
